Assay results published in the NIST ThermoML archive (doi:10.1016/j.fluid.2018.04.007).
± gives the expanded uncertainty stated by the source.

Columns and labels:
[1] = refractive index (Na D-line) (dimensionless); xn = mol fraction of the nth substance listed; settings: 101 kPa, Liquid, Standard Abbe refractometry
[2] = relative permittivity at various frequencies (dimensionless); xn = mol fraction of the nth substance listed; settings: 101 kPa, Liquid, Frequency=1 MHz, Parallel plate capacitor

CCCCCCN [1-hexanamine] + CCCCCCCO
Settings	refractive index, 293.15 K	refractive index, 298.15 K	refractive index, 303.15 K	relative permittivity, 293.15 K	relative permittivity, 298.15 K	relative permittivity, 303.15 K
[1], x2 = 0	1.41807 ± 0.00033	1.41563 ± 0.00033	1.41321 ± 0.00033	–	–	–
[1], x2 = 0.056	1.41916 ± 0.00033	1.41674 ± 0.00033	1.41434 ± 0.00033	–	–	–
[1], x2 = 0.1018	1.41999 ± 0.00033	1.41761 ± 0.00033	1.41523 ± 0.00033	–	–	–
[1], x2 = 0.1463	1.42077 ± 0.00033	1.4184 ± 0.00033	1.41604 ± 0.00033	–	–	–
[1], x2 = 0.2047	1.42171 ± 0.00033	1.41937 ± 0.00033	1.41703 ± 0.00033	–	–	–
[1], x2 = 0.3044	1.4231 ± 0.00033	1.4208 ± 0.00033	1.41853 ± 0.00033	–	–	–
[1], x2 = 0.4059	1.42423 ± 0.00033	1.42197 ± 0.00033	1.41974 ± 0.00033	–	–	–
[1], x2 = 0.5044	1.42503 ± 0.00033	1.4228 ± 0.00033	1.42062 ± 0.00033	–	–	–
[1], x2 = 0.602	1.4255 ± 0.00033	1.42331 ± 0.00033	1.42116 ± 0.00033	–	–	–
[1], x2 = 0.7029	1.42563 ± 0.00033	1.42351 ± 0.00033	1.42142 ± 0.00033	–	–	–
[1], x2 = 0.7979	1.42545 ± 0.00033	1.42339 ± 0.00033	1.42136 ± 0.00033	–	–	–
[1], x2 = 0.8534	1.42521 ± 0.00033	1.4232 ± 0.00033	1.4212 ± 0.00033	–	–	–
[1], x2 = 0.8986	1.42496 ± 0.00033	1.42299 ± 0.00033	1.42103 ± 0.00033	–	–	–
[1], x2 = 0.9472	1.42464 ± 0.00033	1.42271 ± 0.00033	1.42079 ± 0.00033	–	–	–
[2], x2 = 0	–	–	–	3.963 ± 0.37	3.903 ± 0.37	3.848 ± 0.36
[2], x2 = 0.0503	–	–	–	4.202 ± 0.38	4.133 ± 0.38	4.07 ± 0.37
[2], x2 = 0.095	–	–	–	4.414 ± 0.39	4.339 ± 0.38	4.271 ± 0.38
[2], x2 = 0.1606	–	–	–	4.731 ± 0.4	4.644 ± 0.39	4.567 ± 0.39
[2], x2 = 0.2073	–	–	–	4.97 ± 0.41	4.882 ± 0.4	4.796 ± 0.4
[2], x2 = 0.3067	–	–	–	5.497 ± 0.42	5.392 ± 0.42	5.291 ± 0.42
[2], x2 = 0.4038	–	–	–	6.064 ± 0.44	5.934 ± 0.44	5.811 ± 0.43
[2], x2 = 0.4991	–	–	–	6.671 ± 0.46	6.508 ± 0.46	6.358 ± 0.45
[2], x2 = 0.6036	–	–	–	7.425 ± 0.48	7.224 ± 0.48	7.035 ± 0.47
[2], x2 = 0.7001	–	–	–	8.239 ± 0.5	7.981 ± 0.5	7.746 ± 0.49
[2], x2 = 0.8007	–	–	–	9.272 ± 0.53	8.951 ± 0.52	8.651 ± 0.52
[2], x2 = 0.8524	–	–	–	9.877 ± 0.55	9.521 ± 0.54	9.177 ± 0.53
[2], x2 = 0.8904	–	–	–	10.381 ± 0.56	9.983 ± 0.55	9.607 ± 0.54
[2], x2 = 0.9402	–	–	–	11.091 ± 0.58	10.642 ± 0.57	10.222 ± 0.56
